Measured values: ChEMBL document CHEMBL1134822, “Trifluoromethyl-containing 3-alkoxymethyl- and 3-aryloxymethyl-2-pyridinones are potent inhibitors of HIV-1 non-nucleoside reverse transcriptase” (Bioorg Med Chem Lett, 2001)

How the values were obtained:
[1] = molecular target: Human immunodeficiency virus type 1 reverse transcriptase (Human immunodeficiency virus 1, UniProt Q72547); assay: Inhibition of the NNRTI HIV-1 enzyme by 50% using enzyme assay.
[2] = system: Human immunodeficiency virus 1; assay: Antiviral activity against HIV-1 in MT-2 (human leukemia) cells in vitro.; type: functional
[3] = system: Human immunodeficiency virus type 1 reverse transcriptase (Human immunodeficiency virus 1), Q72547 [K103N,P225H]
[4] = system: HIV-1 reverse transcriptase (Human immunodeficiency virus 1); assay: Compound was evaluated for its ability to inhibit the mutant K103N NNRTI HIV-1 enzyme
[5] = system: HIV-1 reverse transcriptase (Human immunodeficiency virus 1); assay: Compound was evaluated for its ability to inhibit the mutant K103N V1081NNRTI HIV-1 enzyme
[6] = system: HIV-1 reverse transcriptase (Human immunodeficiency virus 1); assay: Compound was evaluated for its ability to inhibit the mutant K103N L1001 NNRTI HIV-1 enzyme
[7] = system: HIV-1 reverse transcriptase (Human immunodeficiency virus 1); assay: Compound was evaluated for its ability to inhibit the NNRTI HIV-1 enzyme by 90% using whole cell assay

IC50 [1]	IC90 [2]	Structure (SMILES)	further results
24300 nM	> 1140 nM	Oc1ncccc1C(C#CC1CC1)(Oc1cccc(Oc2ccccc2)c1)C(F)(F)F (stereo not given)	
183 nM	95 nM	CCOC(C#CC1CC1)(c1cc(CC)c(C)nc1O)C(F)(F)F (stereo not given)	
11700 nM	> 1300 nM	Oc1ncccc1C(C#Cc1ccccc1)(OCc1ccccc1)C(F)(F)F (stereo not given)	
6090 nM	61 nM	CCc1cc(C(C#CC2CC2)(OCc2c(F)cccc2Cl)C(F)(F)F)c(O)nc1C (stereo not given)	
1840 nM	1400 nM	CCc1cc(C(C#CC2CC2)(OCC#N)C(F)(F)F)c(O)nc1C (stereo not given)	
1950 nM	160 nM	CCc1cc(C(C#CC2CC2)(OCc2c(F)cccc2OC)C(F)(F)F)c(O)nc1C (stereo not given)	
43900 nM	> 1300 nM	Oc1ncccc1C(/C=C/c1ccccc1)(OCc1ccccc1)C(F)(F)F (stereo not given)	
613 nM	49 nM	CCc1cc(C(C#CC2CC2)(OCc2c(F)cccc2F)C(F)(F)F)c(O)nc1C (stereo not given)	
26000 nM	1010 nM	Oc1ncccc1C(C#CC1CC1)(OCc1ccccn1)C(F)(F)F (stereo not given)	
3840 nM	579 nM	CCc1cc(C(C#CC2CC2)(OCc2cc(OC)cc(OC)c2)C(F)(F)F)c(O)nc1C (stereo not given)	
8110 nM	431 nM	Oc1ncccc1C(C#CC1CC1)(OCc1ccncc1)C(F)(F)F (stereo not given)	
25600 nM	> 1440 nM	Oc1ncccc1C(C#CC1CC1)(OCc1cccnc1)C(F)(F)F (stereo not given)	
770 nM	201 nM	CCc1cc(C(C#CC2CC2)(OC)C(F)(F)F)c(O)nc1C (stereo not given)	
	50 nM	CCc1cc(NCc2nc3c(Cl)ccc(Cl)c3o2)c(O)nc1C [L-697661]	

The remaining lines, values behind:

Structure (SMILES)	IC50 [1]	IC90 [2]	further results
CCCOC(C#CC1CC1)(c1cc(CC)c(C)nc1O)C(F)(F)F (stereo not given)	105 nM	32 nM	
Oc1ncccc1C(/C=C/C1CC1)(OCc1ccccc1)C(F)(F)F (stereo not given)	16700 nM	> 1400 nM	
CCc1cc(C(C#CC2CC2)(OCc2ccccc2)C(F)(F)F)c(=O)[nH]c1C (stereo not given)	1350 nM		
CCc1cc(C(C#CC2CC2)(OCc2ccccc2)C(F)(F)F)c(O)nc1C (stereo not given)			IC90 [3]: 283 nM; IC90 [4]: 113 nM; IC90 [5]: 1210 nM; IC90 [6]: 668 nM; IC90 [7]: 46 nM
CCc1cc(C(C#CC2CC2)(OCC2CC2)C(F)(F)F)c(O)nc1C (stereo not given)	188 nM	37 nM	
Oc1nc2ccccc2cc1C(C#CC1CC1)(OCc1ccccc1)C(F)(F)F (stereo not given)	36000 nM	579 nM	
O=C1Nc2ccc(Cl)cc2[C@@](/C=C/C2CC2)(C(F)(F)F)N1			IC90 [3]: 140 nM; IC90 [5]: 90 nM
CCc1cc(C(C#CC2CC2)(OCc2ccc(Cl)cc2Cl)C(F)(F)F)c(O)nc1C (stereo not given)	2700 nM	190 nM	
CCCCOC(C#CC1CC1)(c1cc(CC)c(C)nc1O)C(F)(F)F (stereo not given)	129 nM	42 nM	
O=C1Nc2ccc(Cl)cc2[C@@](C#CC2CC2)(C(F)(F)F)N1			IC90 [3]: 73 nM; IC90 [4]: 10 nM; IC90 [5]: 38 nM; IC90 [7]: 2 nM
Oc1ncccc1C(C#CC1CC1)(OCc1ccccc1)C(F)(F)F (stereo not given)	11800 nM	182 nM	
CCc1cc(C(C#CC2CC2)(OCc2c(Cl)cccc2Cl)C(F)(F)F)c(O)nc1C (stereo not given)	41100 nM	157 nM	
